# Results published in PubChem BioAssay (NCI).
#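 Exposure lasted 48 hours, with cells grown in 96-well plates and compounds tested at five concentrations. At the TGI there is no net growth.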 Where a SMILES comes first, the peptide text is derived from it. [ ]: non-standard residue; d: D form. The star is where a group is joined. ξ: configuration not given here. ξD = NC(CC(=O)O)C(=O)O; Ac3c = NC1(C(=O)O)CC1; Boc = CC(C)(C)OC(=O)*; OtBu = CC(C)(C)O*
# What was measured:
# Assay in all cases: NCI anticancer screen, dose series, 48 h
# A549 NSCLC = tested on: A549 NSCLC
# ACHN renal = tested on: ACHN renal
# BT-549 breast = tested on: BT-549 breast
# CAKI-1 renal = tested on: CAKI-1 renal
# CCRF-CEM leukemia = tested on: CCRF-CEM leukemia
# COLO 205 colon = tested on: COLO 205 colon
# DU-145 prostate = tested on: DU-145 prostate
# EKVX NSCLC = tested on: EKVX NSCLC
# HCC-2998 colon = tested on: HCC-2998 colon
# HCT-116 colon = tested on: HCT-116 colon
# HCT-15 colon = tested on: HCT-15 colon
# HL-60(TB) leukemia = tested on: HL-60(TB) leukemia
# HOP-62 NSCLC = tested on: HOP-62 NSCLC
# HOP-92 NSCLC = tested on: HOP-92 NSCLC
# HS 578T breast = tested on: HS 578T breast
# HT29 colon = tested on: HT29 colon
# IGROV1 ovarian = tested on: IGROV1 ovarian
# K-562 leukemia = tested on: K-562 leukemia
# KM12 colon = tested on: KM12 colon
# LOX IMVI melanoma = tested on: LOX IMVI melanoma
# M14 melanoma = tested on: M14 melanoma
# MALME-3M melanoma = tested on: MALME-3M melanoma
# MCF7 breast = tested on: MCF7 breast
# MDA-MB-231 breast = tested on: MDA-MB-231 breast
# MDA-MB-435 = tested on: MDA-MB-435
# MDA-N = tested on: MDA-N
# MOLT-4 leukemia = tested on: MOLT-4 leukemia
# NCI-H226 lung = tested on: NCI-H226 lung
# NCI-H23 lung = tested on: NCI-H23 lung
# NCI-H460 lung = tested on: NCI-H460 lung
# NCI-H522 lung = tested on: NCI-H522 lung
# NCI/ADR-RES ovarian = tested on: NCI/ADR-RES ovarian
# OVCAR-3 ovarian = tested on: OVCAR-3 ovarian
# OVCAR-4 ovarian = tested on: OVCAR-4 ovarian
# OVCAR-5 ovarian = tested on: OVCAR-5 ovarian
# OVCAR-8 ovarian = tested on: OVCAR-8 ovarian
# PC-3 prostate = tested on: PC-3 prostate
# RPMI-8226 leukemia = tested on: RPMI-8226 leukemia
# RXF 393 renal = tested on: RXF 393 renal
# SF-268 CNS = tested on: SF-268 CNS
# SF-295 CNS = tested on: SF-295 CNS
# SF-539 CNS = tested on: SF-539 CNS
# SK-MEL-2 melanoma = tested on: SK-MEL-2 melanoma
# SK-MEL-28 melanoma = tested on: SK-MEL-28 melanoma
# SK-MEL-5 melanoma = tested on: SK-MEL-5 melanoma
# SK-OV-3 ovarian = tested on: SK-OV-3 ovarian
# SN12C renal = tested on: SN12C renal
# SNB-19 CNS = tested on: SNB-19 CNS
# SNB-75 CNS = tested on: SNB-75 CNS
# SR leukemia = tested on: SR leukemia
# SW-620 colon = tested on: SW-620 colon
# T-47D breast = tested on: T-47D breast
# TK-10 renal = tested on: TK-10 renal
# U251 CNS = tested on: U251 CNS
# UACC-257 melanoma = tested on: UACC-257 melanoma
# UACC-62 melanoma = tested on: UACC-62 melanoma
# UO-31 renal = tested on: UO-31 renal
# 786-0 renal = tested on: 786-0 renal
# A498 renal = tested on: A498 renal
structure (smiles),measurement,setting,value
COc1ccc2c(c1)CC1Cc3ccccc3CCN1C2 (stereo not drawn),TGI,A549 NSCLC,> 100 µM
same,TGI,ACHN renal,> 100 µM
same,TGI,BT-549 breast,> 100 µM
same,TGI,CAKI-1 renal,59.1 µM
same,TGI,CCRF-CEM leukemia,> 100 µM
same,TGI,COLO 205 colon,> 100 µM
same,TGI,DU-145 prostate,> 100 µM
same,TGI,EKVX NSCLC,> 100 µM
same,TGI,HCC-2998 colon,> 100 µM
same,TGI,HCT-116 colon,> 100 µM
same,TGI,HCT-15 colon,> 100 µM
same,TGI,HL-60(TB) leukemia,> 100 µM
same,TGI,HOP-62 NSCLC,> 100 µM
same,TGI,HOP-92 NSCLC,> 100 µM
same,TGI,HS 578T breast,> 100 µM
same,TGI,HT29 colon,> 100 µM
same,TGI,IGROV1 ovarian,> 100 µM
same,TGI,K-562 leukemia,> 100 µM
same,TGI,KM12 colon,> 100 µM
same,TGI,LOX IMVI melanoma,51.8 µM
same,TGI,M14 melanoma,> 100 µM
same,TGI,MALME-3M melanoma,> 100 µM
same,TGI,MCF7 breast,> 100 µM
same,TGI,MDA-MB-231 breast,63.6 µM
same,TGI,MDA-MB-435,> 100 µM
same,TGI,MDA-N,> 100 µM
same,TGI,MOLT-4 leukemia,> 100 µM
same,TGI,NCI-H226 lung,> 100 µM
same,TGI,NCI-H23 lung,> 100 µM
same,TGI,NCI-H460 lung,> 100 µM
same,TGI,NCI-H522 lung,63.6 µM
same,TGI,NCI/ADR-RES ovarian,> 100 µM
same,TGI,OVCAR-3 ovarian,> 100 µM
same,TGI,OVCAR-4 ovarian,> 100 µM
same,TGI,OVCAR-5 ovarian,> 100 µM
same,TGI,OVCAR-8 ovarian,> 100 µM
same,TGI,PC-3 prostate,> 100 µM
same,TGI,RPMI-8226 leukemia,92.3 µM
same,TGI,RXF 393 renal,> 100 µM
same,TGI,SF-268 CNS,> 100 µM
same,TGI,SF-295 CNS,> 100 µM
same,TGI,SF-539 CNS,> 100 µM
same,TGI,SK-MEL-2 melanoma,> 100 µM
same,TGI,SK-MEL-28 melanoma,> 100 µM
same,TGI,SK-MEL-5 melanoma,41.7 µM
same,TGI,SK-OV-3 ovarian,> 100 µM
same,TGI,SN12C renal,> 100 µM
same,TGI,SNB-19 CNS,> 100 µM
same,TGI,SNB-75 CNS,> 100 µM
same,TGI,SR leukemia,> 100 µM
same,TGI,SW-620 colon,> 100 µM
same,TGI,T-47D breast,> 100 µM
same,TGI,TK-10 renal,> 100 µM
same,TGI,U251 CNS,> 100 µM
same,TGI,UACC-257 melanoma,> 100 µM
same,TGI,UACC-62 melanoma,> 100 µM
same,TGI,UO-31 renal,> 100 µM
COC(=O)C1(NC(=O)C(CC(=O)OC(C)(C)C)NC(=O)OC(C)(C)C)CC1 (stereo not drawn) (Boc-[ξD](OtBu)-[Ac3c]-OMe),TGI,786-0 renal,> 100 µM
same,TGI,A498 renal,> 100 µM
same,TGI,A549 NSCLC,> 100 µM
same,TGI,ACHN renal,> 100 µM
same,TGI,BT-549 breast,> 100 µM
same,TGI,CAKI-1 renal,> 100 µM
same,TGI,CCRF-CEM leukemia,> 100 µM
same,TGI,COLO 205 colon,> 100 µM
same,TGI,DU-145 prostate,> 100 µM
same,TGI,EKVX NSCLC,> 100 µM
same,TGI,HCC-2998 colon,> 100 µM
same,TGI,HCT-116 colon,> 100 µM
same,TGI,HCT-15 colon,> 100 µM
same,TGI,HOP-62 NSCLC,> 100 µM
same,TGI,HS 578T breast,> 100 µM
same,TGI,HT29 colon,> 100 µM
same,TGI,IGROV1 ovarian,> 100 µM
same,TGI,K-562 leukemia,> 100 µM
same,TGI,KM12 colon,> 100 µM
same,TGI,LOX IMVI melanoma,> 100 µM
same,TGI,M14 melanoma,> 100 µM
same,TGI,MALME-3M melanoma,> 100 µM
same,TGI,MCF7 breast,> 100 µM
same,TGI,MDA-MB-231 breast,> 100 µM
same,TGI,MDA-MB-435,> 100 µM
same,TGI,MDA-N,> 100 µM
same,TGI,MOLT-4 leukemia,> 100 µM
same,TGI,NCI-H226 lung,> 100 µM
same,TGI,NCI-H23 lung,> 100 µM
same,TGI,NCI-H460 lung,> 100 µM
same,TGI,NCI-H522 lung,> 100 µM
same,TGI,NCI/ADR-RES ovarian,> 100 µM
same,TGI,OVCAR-3 ovarian,> 100 µM
same,TGI,OVCAR-4 ovarian,> 100 µM
same,TGI,OVCAR-5 ovarian,> 100 µM
same,TGI,OVCAR-8 ovarian,> 100 µM
same,TGI,PC-3 prostate,> 100 µM
same,TGI,RPMI-8226 leukemia,> 100 µM
same,TGI,RXF 393 renal,> 100 µM
same,TGI,SF-268 CNS,> 100 µM
same,TGI,SF-295 CNS,> 100 µM
same,TGI,SF-539 CNS,> 100 µM
same,TGI,SK-MEL-2 melanoma,> 100 µM
same,TGI,SK-MEL-28 melanoma,> 100 µM
same,TGI,SK-MEL-5 melanoma,> 100 µM
same,TGI,SK-OV-3 ovarian,> 100 µM
same,TGI,SN12C renal,> 100 µM
same,TGI,SNB-19 CNS,> 100 µM
same,TGI,SNB-75 CNS,> 100 µM
same,TGI,SW-620 colon,> 100 µM
same,TGI,T-47D breast,> 100 µM
same,TGI,TK-10 renal,> 100 µM
same,TGI,U251 CNS,> 100 µM
same,TGI,UACC-257 melanoma,> 100 µM
same,TGI,UACC-62 melanoma,> 100 µM
same,TGI,UO-31 renal,> 100 µM
O=C1c2ccccc2C(=O)N1C1(C(=O)NC2(C(=O)O)CCCC2)CCCC1,TGI,786-0 renal,> 100 µM
same,TGI,A498 renal,> 100 µM
same,TGI,A549 NSCLC,> 100 µM
same,TGI,ACHN renal,> 100 µM
same,TGI,BT-549 breast,> 100 µM
same,TGI,CAKI-1 renal,> 100 µM
same,TGI,CCRF-CEM leukemia,> 100 µM
same,TGI,COLO 205 colon,> 100 µM
same,TGI,DU-145 prostate,> 100 µM
same,TGI,EKVX NSCLC,> 100 µM
same,TGI,HCC-2998 colon,> 100 µM
same,TGI,HCT-116 colon,> 100 µM
same,TGI,HCT-15 colon,> 100 µM
same,TGI,HOP-62 NSCLC,> 100 µM
same,TGI,HS 578T breast,> 100 µM
same,TGI,HT29 colon,> 100 µM
same,TGI,IGROV1 ovarian,> 100 µM
same,TGI,K-562 leukemia,> 100 µM
same,TGI,KM12 colon,> 100 µM
same,TGI,LOX IMVI melanoma,> 100 µM
same,TGI,M14 melanoma,> 100 µM
same,TGI,MALME-3M melanoma,> 100 µM
same,TGI,MCF7 breast,> 100 µM
same,TGI,MDA-MB-231 breast,> 100 µM
same,TGI,MDA-MB-435,> 100 µM
same,TGI,MDA-N,> 100 µM
same,TGI,MOLT-4 leukemia,> 100 µM
same,TGI,NCI-H226 lung,> 100 µM
same,TGI,NCI-H23 lung,> 100 µM
same,TGI,NCI-H522 lung,> 100 µM
same,TGI,NCI/ADR-RES ovarian,> 100 µM
same,TGI,OVCAR-3 ovarian,> 100 µM
same,TGI,OVCAR-4 ovarian,> 100 µM
same,TGI,OVCAR-5 ovarian,> 100 µM
same,TGI,OVCAR-8 ovarian,> 100 µM
same,TGI,PC-3 prostate,> 100 µM
same,TGI,RPMI-8226 leukemia,> 100 µM
same,TGI,RXF 393 renal,> 100 µM
same,TGI,SF-268 CNS,> 100 µM
same,TGI,SF-295 CNS,> 100 µM
same,TGI,SK-MEL-2 melanoma,> 100 µM
same,TGI,SK-MEL-28 melanoma,> 100 µM
same,TGI,SK-MEL-5 melanoma,> 100 µM
same,TGI,SK-OV-3 ovarian,> 100 µM
same,TGI,SN12C renal,> 100 µM
same,TGI,SNB-19 CNS,> 100 µM
same,TGI,SNB-75 CNS,> 100 µM
same,TGI,SR leukemia,> 100 µM
same,TGI,SW-620 colon,> 100 µM
same,TGI,T-47D breast,> 100 µM
same,TGI,TK-10 renal,> 100 µM
same,TGI,U251 CNS,> 100 µM
same,TGI,UACC-257 melanoma,> 100 µM
same,TGI,UACC-62 melanoma,> 100 µM
same,TGI,UO-31 renal,> 100 µM
